Assay results as given in US6667341B2, “Delta dicarbonyl compounds and methods for using the same” (Beacon Laboratories, Inc., priority 2000, dated 2003).

These compounds were tested on PC-3 prostate cancer cells (assay: EDR anti-proliferation assay (3H-thymidine incorporation, soft agar), PC-3). Conditions: PC-3 cell line; five days incubation; 3H-TdR incorporation; read-out: PC-3 or MCF-7* IC50.
Assay type: cell-based
Procedure: (§1) Compounds prepared according to Examples 1-7 were tested for anti-proliferation against PC-3 prostate or MCF-7 breast cancer cells. The specific compounds tested include N-methyl-2-(2-methoxyethoxy)acetamidomethyl butyrate; N-methylbutyramidomethyl cinnamate; N-methylcinnamamidomethyl butyrate; cinnamoyloxymethyl thiobutyrate; butyroyloxymethyl thiocinnamate; bis(thiobutyl)methane; 3-oxohexyl cinnamate; and propionoyloxymethyl propionate. Butyric acid and trichostatin, a potent HDAC inhibitor, were used as reference compounds. Both compounds were purchased from Sigma-Aldrich, Milwaukee, Wis.
The PC-3 cell line was maintained in RPMI supplemented with 10% fetal calf serum and antibiotics. The EDR assay was performed as described by Kern and Weisenthal in “Highly Specific Prediction of Antineoplastic Drug Resistance With An In Vitro Assay Using Suprapharmacologic Drug Exposures,” J. Nat. Cancer Inst., 82:582-588 (1990); and Fruehauf and Bosanquet, “In vitro Determination of Drug Response: A Discussion of Clinical Applications,” PPO Updates 7(12):1-16 (1993). Cells were suspended in 0.12% soft agar in complete medium and plated (2,000 cells per well, as determined by preliminary experiments) in different drug concentrations onto a 0.4% agarose underlayer in 24-well plates. Plating cells on agarose underlayers supports the proliferation only of the transformed cells, ensuring that the growth signal stems from the malignant component of the tumor.
All compounds were dissolved in DMSO to 200× stock solutions. Stock solutions were diluted to 20× working solutions using the tissue culture medium, serially diluted and added to the 24-well plates. The concentration range was 0.001 μM to 0.3 μM for trichostatin and 10 μM-1,000 μM for the other compounds. No significant changes in pH of the culture medium were observed under the above conditions. Diluent control wells contained PC3 cells treated with DMSO, at the dilutions used for appropriate drug treatment. All experimental points were represented by two separate wells (duplicates). Positive controls were determined using at least two wells treated with an extremely high dose of cisplatin, an anti-cancer agent. Four wells containing tumor cells that were not treated with drugs served as negative controls in each experiment.
Cells were incubated with drugs under standard culture conditions for five days. Cultures were pulsed with tritiated thymidine (^3H-TdR, New Life Science Products, Boston, Mass.) at 5 μCi per well for the last 48 hours of the culture period.
(§2) Cell culture plates were then heated to 90° C. to liquefy the agarose, and cells were harvested onto glass fiber filters, which were then placed into counting vials containing liquid scintillation fluid. The radioactivity trapped on the filters was counted with a Beckman scintillation counter. The fraction of surviving cells was determined by comparing ^3H-TdR incorporation in treated (experimental points) and untreated (negative control) wells. All drug concentrations are presented as μM, allowing for normalization of drug response curves and direct comparison of the effects of the drugs. Microsoft Excel was used to organize the raw data on EDR experiments, and the SigmaPlot program was utilized to generate drug response curves. All drug response curves were as approximated as sigmoidal equations (characteristic for typical drug response curves) to fit the data. IC50 values were determined using the approximated sigmoidal curves and expressed as μM. Table 12 provides the PC-3 or MCF-7 IC50 data for each of the compounds tested.

| IC50 | SMILES |
| --- | --- |
| 20 µM | CCCC(=O)OCN(C)C(=O)C=Cc1ccccc1 [N-methylcinnamamidomethyl butyrate, N-Methylcinnamamidomethyl Butyrate] |
| 100 µM | CCCC(=O)N(C)COC(=O)C=Cc1ccccc1 [N-methylbutyramidomethyl cinnamate, N-Methylbutyramidomethyl Cinnamate] |
| 30 µM | CCCC(=O)OCOC(=S)C=Cc1ccccc1 [butyroyloxymethyl thiocinnamate, Butyroyloxymethyl Thiocinnamate] |
| 36 µM | CCCC(=O)OCN(C)C(=O)COCCOC [N-Methyl-2-(2-methoxyethoxy)acetamidomethyl Butyrate] |
| > 2000 µM | CCCC(=O)O [butyric acid, reference compound] |
| 40 µM | CCCC(=O)CCOC(=O)C=Cc1ccccc1 [3-oxohexyl cinnamate, 3-Oxohexyl Cinnamate] |
| 30 µM | CCCC(=S)OCOC(=O)C=Cc1ccccc1 [cinnamoyloxymethyl thio-butyrate, Cinnamoyloxymethyl Thiobutyrate] |
| 0.005 µM | CC(/C=C/C(=O)NO)=C\[C@@H](C)C(=O)c1ccc(N(C)C)cc1 [trichostatin, reference compound] |

| SMILES | IC50 |
| --- | --- |
| CCCC(=O)SCSC(=O)CCC | 40 µM |

These compounds were tested on MCF-7 breast cancer cells (assay: Anti-proliferation assay, MCF-7). Conditions: Homo sapiens, MCF7; value marked *: obtained from MCF-7 cell line; read-out: PC-3 or MCF-7* IC50.
Assay type: cell-based
Procedure: as §1
as §2, with “Microsoft Excel was used to organize the raw data on EDR experiments, and the SigmaPlot program was utilized to generate drug response curves. All drug response curves were as approximated as sigmoidal equations (characteristic for typical drug response curves) to fit the data.” left out, “Table 12 provides the PC-3 or MCF-7 IC50 data for each of the compounds tested.” left out

| IC50 | SMILES |
| --- | --- |
| 50 µM | CCC(=O)OCOC(=S)CC [propionoyloxymethyl thiopropionate, Propionoyloxymethyl Thiopropionate] |
